Laboratory results as given in article PMC5448077, “Development of an orally available inhibitor of CLK1 for skipping a mutated dystrophin exon in Duchenne muscular dystrophy” (Scientific Reports, 2017).

What was measured:
Test in all cases: biochemical
[1] = target: T1, ACK (Homo sapiens, UniProt Q07912)
T1 construct: gene TNK2
Method in brief: (§1)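 Reactions at room temperature in HEPES buffer (20 mM, pH 7.5, 0.01% Triton X-100, 2 mM DTT) lasted 1 or 5 h depending on kinase, with substrate peptide and ATP-metal. Phosphorylation read by electrophoretic mobility shift or IMAP polarization; kinase activity computed as P/(P + S).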

[2] = target: AKT3 (Homo sapiens, UniProt Q9Y243)
Method in brief: as §1

[3] = target: T2, AurA (Homo sapiens, UniProt O14965)
T2 construct: gene AURKA
Method in brief: as §1

[4] = target: T3, AurB (Homo sapiens, UniProt Q96GD4)
T3 construct: gene AURKB
Method in brief: as §1

[5] = target: CDC7/ASK (Homo sapiens, UniProt O00311)
Method in brief: as §1

[6] = target: T4, CK2α2/β (Homo sapiens, UniProt P19784)
T4 construct: gene CSNK2A2
Method in brief: as §1

[7] = target: T5, CaMK2β (Homo sapiens, UniProt Q13554)
T5 construct: gene CAMK2B
Method in brief: as §1

[8] = target: T6, CaMK2δ (Homo sapiens, UniProt Q13557)
T6 construct: gene CAMK2D
Method in brief: as §1

[9] = target: FLT3 (Homo sapiens, UniProt P36888)
Method in brief: as §1

[10] = target: FLT4 (Homo sapiens, UniProt P35916)
Method in brief: as §1

[11] = target: HIPK2 (Homo sapiens, UniProt Q9H2X6)
Method in brief: as §1

[12] = target: Haspin (Homo sapiens, UniProt Q8TF76)
Method in brief: as §1

[13] = target: JAK2 (Homo sapiens, UniProt O60674)
Method in brief: as §1

[14] = target: KDR (Homo sapiens, UniProt P35968)
Method in brief: as §1

[15] = target: KIT(D816Y) (Homo sapiens, UniProt P10721, D816Y)
Method in brief: as §1

[16] = target: T7, LYNb (Homo sapiens, UniProt P07948)
T7 construct: gene LYN; isoform b
Method in brief: as §1

[17] = target: MET (Homo sapiens, UniProt P08581)
Method in brief: as §1

[18] = target: T8, PDGFRα(V561D) (Homo sapiens, UniProt P16234, V561D)
T8 construct: gene PDGFRA
Method in brief: as §1

[19] = target: T9, PDGFRβ (Homo sapiens, UniProt P09619)
T9 construct: gene PDGFRB
Method in brief: as §1

[20] = target: T10, PDK1 (Homo sapiens, UniProt O15530)
T10 construct: gene PDPK1
Method in brief: as §1

[21] = target: PHKG2 (Homo sapiens, UniProt P15735)
Method in brief: as §1

[22] = target: T11, PKCζ (Homo sapiens, UniProt Q05513)
T11 construct: gene PRKCZ
Method in brief: as §1

[23] = target: T12, PKCι (Homo sapiens, UniProt P41743)
T12 construct: gene PRKCI
Method in brief: as §1

[24] = target: T13, PKD2 (Homo sapiens, UniProt Q9BZL6)
T13 construct: gene PRKD2
Method in brief: as §1

[25] = target: RET(M918T) (Homo sapiens, UniProt P07949, M918T)
Method in brief: as §1

[26] = target: T14, ROS (Homo sapiens, UniProt P08922)
T14 construct: gene ROS1
Method in brief: as §1

[27] = target: T15, RSK3 (Homo sapiens, UniProt Q15349)
T15 construct: gene RPS6KA2
Method in brief: as §1

[28] = target: TNIK (Homo sapiens, UniProt Q9UKE5)
Method in brief: as §1

[29] = target: T16, p38β (Homo sapiens, UniProt Q15759)
T16 construct: gene MAPK11
Method in brief: as §1

[30] = target: T17, p70S6Kβ (Homo sapiens, UniProt Q9UBS0)
T17 construct: gene RPS6KB2
Method in brief: as §1

[31] = target: T18, skMLCK (Homo sapiens, UniProt Q9H1R3)
T18 construct: gene MYLK2
Method in brief: as §1

AKT3, sequence (Q9Y243 whole entry): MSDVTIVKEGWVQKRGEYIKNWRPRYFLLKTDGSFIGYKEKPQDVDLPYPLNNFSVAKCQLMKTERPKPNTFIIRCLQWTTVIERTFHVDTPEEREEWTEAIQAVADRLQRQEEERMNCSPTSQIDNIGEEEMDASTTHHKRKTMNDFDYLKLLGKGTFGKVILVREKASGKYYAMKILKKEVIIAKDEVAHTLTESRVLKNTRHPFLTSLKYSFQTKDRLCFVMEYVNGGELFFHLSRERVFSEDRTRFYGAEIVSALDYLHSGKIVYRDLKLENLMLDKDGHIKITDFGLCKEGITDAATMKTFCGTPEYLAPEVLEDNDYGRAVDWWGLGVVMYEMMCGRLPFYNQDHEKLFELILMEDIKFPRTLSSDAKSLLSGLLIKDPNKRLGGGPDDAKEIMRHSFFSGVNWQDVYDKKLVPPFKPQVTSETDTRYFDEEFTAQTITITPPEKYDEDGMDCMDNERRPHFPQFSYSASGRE
T16 sequence (Q15759 whole entry): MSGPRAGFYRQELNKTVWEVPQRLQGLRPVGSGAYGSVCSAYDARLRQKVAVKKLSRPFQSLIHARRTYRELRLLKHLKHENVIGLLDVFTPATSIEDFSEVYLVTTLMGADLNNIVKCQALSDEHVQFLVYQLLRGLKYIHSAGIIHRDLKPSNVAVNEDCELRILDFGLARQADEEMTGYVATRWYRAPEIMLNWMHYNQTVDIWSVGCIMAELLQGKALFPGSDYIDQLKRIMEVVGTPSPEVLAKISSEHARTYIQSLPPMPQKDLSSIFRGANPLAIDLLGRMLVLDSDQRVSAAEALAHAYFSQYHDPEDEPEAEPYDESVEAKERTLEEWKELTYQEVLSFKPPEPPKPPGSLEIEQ
TNIK, sequence (Q9UKE5 whole entry): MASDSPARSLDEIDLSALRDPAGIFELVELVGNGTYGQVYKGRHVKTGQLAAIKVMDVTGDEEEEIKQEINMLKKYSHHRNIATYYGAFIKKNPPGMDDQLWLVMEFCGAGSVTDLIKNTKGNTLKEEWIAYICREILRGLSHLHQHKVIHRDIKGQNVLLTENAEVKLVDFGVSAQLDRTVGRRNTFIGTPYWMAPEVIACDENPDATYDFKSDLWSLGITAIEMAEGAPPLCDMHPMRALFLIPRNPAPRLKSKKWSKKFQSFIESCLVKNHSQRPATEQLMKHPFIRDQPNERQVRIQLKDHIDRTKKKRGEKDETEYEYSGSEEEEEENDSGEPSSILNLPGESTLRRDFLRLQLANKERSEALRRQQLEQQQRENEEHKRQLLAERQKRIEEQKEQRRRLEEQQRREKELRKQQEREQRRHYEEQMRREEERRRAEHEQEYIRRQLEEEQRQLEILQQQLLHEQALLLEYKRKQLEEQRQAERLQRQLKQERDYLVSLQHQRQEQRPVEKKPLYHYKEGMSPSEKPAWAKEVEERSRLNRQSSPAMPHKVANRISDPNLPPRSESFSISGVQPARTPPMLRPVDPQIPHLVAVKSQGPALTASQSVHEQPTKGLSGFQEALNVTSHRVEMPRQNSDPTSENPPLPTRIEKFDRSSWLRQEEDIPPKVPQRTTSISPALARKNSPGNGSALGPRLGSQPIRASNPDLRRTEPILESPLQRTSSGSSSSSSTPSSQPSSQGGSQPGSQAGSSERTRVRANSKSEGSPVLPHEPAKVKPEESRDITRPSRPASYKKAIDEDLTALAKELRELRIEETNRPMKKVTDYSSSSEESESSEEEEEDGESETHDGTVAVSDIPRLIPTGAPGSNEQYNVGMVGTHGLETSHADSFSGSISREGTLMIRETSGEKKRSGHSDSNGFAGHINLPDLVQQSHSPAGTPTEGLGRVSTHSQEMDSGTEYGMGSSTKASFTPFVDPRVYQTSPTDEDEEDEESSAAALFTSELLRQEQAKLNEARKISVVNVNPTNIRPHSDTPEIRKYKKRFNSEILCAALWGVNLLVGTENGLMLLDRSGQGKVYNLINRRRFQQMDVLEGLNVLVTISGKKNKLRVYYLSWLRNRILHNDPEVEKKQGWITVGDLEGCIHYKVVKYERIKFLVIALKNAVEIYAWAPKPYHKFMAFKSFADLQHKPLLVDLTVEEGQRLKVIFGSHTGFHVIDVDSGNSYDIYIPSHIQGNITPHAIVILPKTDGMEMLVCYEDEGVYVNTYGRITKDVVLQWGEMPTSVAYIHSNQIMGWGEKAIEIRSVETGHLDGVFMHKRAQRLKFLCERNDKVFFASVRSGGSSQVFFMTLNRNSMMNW
KIT(D816Y), sequence (P10721 whole entry D816Y): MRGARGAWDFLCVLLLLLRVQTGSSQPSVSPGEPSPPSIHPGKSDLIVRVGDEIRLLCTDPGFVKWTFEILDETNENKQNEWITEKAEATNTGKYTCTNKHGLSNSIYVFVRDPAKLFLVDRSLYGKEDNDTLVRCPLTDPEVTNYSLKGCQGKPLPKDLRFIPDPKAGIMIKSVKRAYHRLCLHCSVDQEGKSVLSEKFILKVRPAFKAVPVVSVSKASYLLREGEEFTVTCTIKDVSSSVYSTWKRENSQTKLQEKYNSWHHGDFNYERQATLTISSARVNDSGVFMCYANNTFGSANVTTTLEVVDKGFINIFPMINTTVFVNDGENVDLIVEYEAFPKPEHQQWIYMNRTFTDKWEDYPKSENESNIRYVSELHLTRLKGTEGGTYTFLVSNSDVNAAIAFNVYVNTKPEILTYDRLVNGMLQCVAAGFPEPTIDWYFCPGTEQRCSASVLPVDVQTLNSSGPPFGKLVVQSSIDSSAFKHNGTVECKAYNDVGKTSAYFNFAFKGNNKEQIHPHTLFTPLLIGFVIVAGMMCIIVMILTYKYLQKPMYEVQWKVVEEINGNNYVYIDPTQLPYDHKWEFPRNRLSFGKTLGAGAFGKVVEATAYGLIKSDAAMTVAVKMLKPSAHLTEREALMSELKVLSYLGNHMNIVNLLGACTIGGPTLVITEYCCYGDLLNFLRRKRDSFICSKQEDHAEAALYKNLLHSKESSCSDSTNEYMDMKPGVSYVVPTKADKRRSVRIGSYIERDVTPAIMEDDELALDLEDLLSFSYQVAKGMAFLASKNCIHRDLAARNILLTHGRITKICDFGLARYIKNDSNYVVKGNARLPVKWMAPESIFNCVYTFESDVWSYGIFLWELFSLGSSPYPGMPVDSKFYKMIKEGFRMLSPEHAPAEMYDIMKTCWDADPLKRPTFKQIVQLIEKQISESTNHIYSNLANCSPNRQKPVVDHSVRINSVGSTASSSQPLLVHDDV
FLT4, sequence (P35916 whole entry): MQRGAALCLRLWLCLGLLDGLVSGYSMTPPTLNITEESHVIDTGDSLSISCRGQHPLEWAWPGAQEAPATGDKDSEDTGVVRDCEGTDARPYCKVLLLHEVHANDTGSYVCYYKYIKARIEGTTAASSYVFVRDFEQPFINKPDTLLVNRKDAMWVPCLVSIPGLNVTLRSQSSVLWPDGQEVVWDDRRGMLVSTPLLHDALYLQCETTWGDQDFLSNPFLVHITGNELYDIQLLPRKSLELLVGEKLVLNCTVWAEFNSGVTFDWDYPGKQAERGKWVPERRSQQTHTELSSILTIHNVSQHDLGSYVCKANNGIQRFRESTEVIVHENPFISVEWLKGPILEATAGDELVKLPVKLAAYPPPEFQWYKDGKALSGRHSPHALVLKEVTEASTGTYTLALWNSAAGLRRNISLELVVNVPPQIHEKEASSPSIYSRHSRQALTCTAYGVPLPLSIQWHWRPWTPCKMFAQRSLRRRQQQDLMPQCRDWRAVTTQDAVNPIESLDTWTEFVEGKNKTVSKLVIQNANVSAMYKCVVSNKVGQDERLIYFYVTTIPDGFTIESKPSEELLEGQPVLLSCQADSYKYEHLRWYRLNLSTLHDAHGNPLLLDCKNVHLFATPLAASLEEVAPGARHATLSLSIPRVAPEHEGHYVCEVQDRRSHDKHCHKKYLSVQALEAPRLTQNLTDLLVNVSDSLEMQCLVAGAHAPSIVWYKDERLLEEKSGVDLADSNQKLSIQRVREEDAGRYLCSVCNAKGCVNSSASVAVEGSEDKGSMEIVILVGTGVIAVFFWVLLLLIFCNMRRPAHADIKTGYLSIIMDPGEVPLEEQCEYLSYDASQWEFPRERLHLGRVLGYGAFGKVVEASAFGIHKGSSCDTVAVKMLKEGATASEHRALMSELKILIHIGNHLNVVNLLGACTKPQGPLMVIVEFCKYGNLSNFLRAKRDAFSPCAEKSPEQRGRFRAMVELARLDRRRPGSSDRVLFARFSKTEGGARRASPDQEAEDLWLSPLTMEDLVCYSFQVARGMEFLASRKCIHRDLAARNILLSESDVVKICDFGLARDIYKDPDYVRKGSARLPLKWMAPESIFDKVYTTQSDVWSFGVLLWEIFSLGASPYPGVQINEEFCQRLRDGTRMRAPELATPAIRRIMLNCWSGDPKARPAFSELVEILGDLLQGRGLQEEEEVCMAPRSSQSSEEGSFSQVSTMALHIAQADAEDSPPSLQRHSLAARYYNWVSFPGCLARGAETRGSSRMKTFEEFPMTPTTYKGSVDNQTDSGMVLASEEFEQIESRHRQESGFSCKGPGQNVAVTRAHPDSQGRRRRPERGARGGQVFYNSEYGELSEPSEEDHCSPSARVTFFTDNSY
T17 sequence (Q9UBS0 whole entry): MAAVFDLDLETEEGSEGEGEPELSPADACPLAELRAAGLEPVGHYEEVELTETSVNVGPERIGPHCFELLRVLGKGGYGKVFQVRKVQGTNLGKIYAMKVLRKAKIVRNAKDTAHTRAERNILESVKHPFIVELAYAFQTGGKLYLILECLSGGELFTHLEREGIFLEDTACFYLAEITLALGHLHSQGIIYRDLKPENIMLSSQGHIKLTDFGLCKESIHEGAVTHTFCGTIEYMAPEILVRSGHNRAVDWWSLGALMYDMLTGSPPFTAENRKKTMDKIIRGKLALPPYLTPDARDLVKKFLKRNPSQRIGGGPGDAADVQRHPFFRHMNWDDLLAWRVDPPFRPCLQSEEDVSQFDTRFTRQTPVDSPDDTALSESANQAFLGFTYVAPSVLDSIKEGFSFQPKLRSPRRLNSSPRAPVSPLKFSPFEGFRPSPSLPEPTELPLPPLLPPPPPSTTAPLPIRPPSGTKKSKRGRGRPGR

c1cc(-c2ccc3[nH]ncc3c2)ccn1 [TG693, 5-(4-pyridinyl)-1H-indazole]
inhibition at 1 µM [1]: -1.1% | inhibition at 1 µM [2]: -4.6% | inhibition at 1 µM [3]: -6.2% | inhibition at 1 µM [4]: 6.1% | inhibition at 1 µM [5]: 10.8% | inhibition at 1 µM [6]: 14.6% | inhibition at 1 µM [7]: 2.8% | inhibition at 1 µM [8]: 1.4% | inhibition at 1 µM [9]: 17.5% | inhibition at 1 µM [10]: -0.3% | inhibition at 1 µM [11]: -2% | inhibition at 1 µM [12]: 92.8% | inhibition at 1 µM [13]: 7.9% | inhibition at 1 µM [14]: 0.1% | inhibition at 1 µM [15]: -1.7% | inhibition at 1 µM [16]: 0.8% | inhibition at 1 µM [17]: 13.2% | inhibition at 1 µM [18]: 2.7% | inhibition at 1 µM [19]: 3% | inhibition at 1 µM [20]: -3.9% | inhibition at 1 µM [21]: 6.3% | inhibition at 1 µM [22]: -9.7% | inhibition at 1 µM [23]: -6.8% | inhibition at 1 µM [24]: 5.4% | inhibition at 1 µM [25]: -2.6% | inhibition at 1 µM [26]: 8.1% | inhibition at 1 µM [27]: -4.8% | inhibition at 1 µM [28]: 48.6% | inhibition at 1 µM [29]: -1.5% | inhibition at 1 µM [30]: 18.7% | inhibition at 1 µM [31]: 0.9%
